Assays:
[1] = system: psoriasis-induced BALB/c mice; assay: Psoriasis animal model (Aldara cream, Imiquimod); type: in vivo, mouse
Protocol: To verify the therapeutic effect of the compound according to the present invention on psoriasis, a psoriasis animal model was established as follows, and the compound according to the present invention was administered to evaluate the alleviation of skin lesions and changes in immune cell patterns.
For the establishment of the psoriasis animal model, BALB/c mice (7 weeks old, female, 20 g) were purchased from HanabioTech Co., Ltd. and acclimatized to the rearing environment for one week.
Subsequently, the hair on the mouse back was shaved using a hair removal device for the first time, and then completely shaved using a depilatory cream (Nicrin Cream (80% thioglycolic acid, Il Dong Pharmaceutical)) for the second time. The mice were then kept for 24 hours to confirm the absence of skin damage.
To verify the psoriasis prevention and therapeutic effects of the compounds according to the present invention, the following experimental groups were established:
[Normal control group (Normal, Not Treatment), psoriasis-induced control group (Psoriasis, Not Treatment), psoriasis-induced vehicle control group (Psoriasis, Vehicle), experimental group (GO85, GO86, GO88, GO89, PBK-2024-010, PBK-2024-026, PBK-2025-002, PBK-2025-004, PBK-2025-016, PBK-2025-017, PBK-2025-023)]. […]
Body weights of mice in each group were measured on days 1, 4, and 8 after the start of injection and psoriasis induction. […]
To evaluate the therapeutic effect in a psoriasis-induced mouse model, the PASI (Psoriasis Area and Severity Index) score was measured.
The PASI score is based on three criteria: erythema, scaling, and skin thickness, each scored from 0 (none) to 4 (severe). […]
Observations were conducted daily at the same time, and the same observer visually assessed each criterion and recorded the scores, with the results presented in FIG. 13. […]
All samples were measured in duplicate, and the absorbance was measured at 450 nm using a microplate reader.

[2] = system: Human B Lymphocyte cell line, SU-DHL-8; assay: Relative cell viability, CCK-8, SU-DHL-8; type: cell-based; settings: 48 hours
Protocol: Human-derived B lymphoma cell line SU-DHL-8 (Cat. #CRL-2961) purchased from ATCC was cultured in RPMI-1640 medium containing 10% FBS, 100 U/mL penicillin, and 100 μg/mL streptomycin.
The cell culture medium was then harvested, centrifuged at 1,300 rpm for 5 minutes, and the supernatant was removed. The cells were resuspended in the same medium and dispensed into a 96-well plate (Costar 96-well cell culture plate, Corning) at 90 μL per well, resulting in the conditions specified in Table 5.
Then, 10 μL of CCK-8 was added to each well, and the plates were incubated again at 37° C. in a 5% CO2 incubator for 4 hours.
In other words, when the survival rate of untreated cells (DMSO) is set at 100%, the relative cell survival rate in each group treated with the drug at different concentrations is indicated.

[3] = system: phospho-PDK1 in SU-DHL-8 cells; assay: PDK1 phosphorylation (pPDK1) by flow cytometry in SU-DHL-8 cells; type: cell-based, human; settings: SU-DHL-8, 24 hours, pPDK1-PE flow cytometry, vs control group
Protocol: SU-DHL-8 cells were cultured in RPMI-1640 medium (containing 10% FBS, 100 U/mL penicillin, and 100 μg/mL streptomycin), and the cell concentration was adjusted to 1×10^6 cells/mL and seeded into a 12-well plate. After stabilizing the cells, the compound of the present invention was added, and the cells were cultured for 24 hours.
After drug treatment, the cells were harvested, and the Fc receptor blocking process was performed. The cells were then fixed and permeabilized using the Intracellular Staining Kit (Cat. No. BD554715) from BD Biosciences. Subsequently, the intracellular pPDK1 was stained using the pPDK1-PE fluorescently labeled antibody (BD Biosciences).
Referring to the figure, the vertical axis represents the phosphorylation level of PDK1 (phospho-PDK1 expression level), and the horizontal axis denotes the concentration-dependent treatment conditions of each compound.

[4] = system: bleomycin-treated Balb/c mice; assay: Bleomycin-induced pulmonary fibrosis animal model; type: in vivo, mouse; settings: bleomycin mice lung, vs BLM-treated group
From the text: To evaluate the therapeutic efficacy of the compound according to the present invention against pulmonary fibrosis, an animal model of pulmonary fibrosis induced by bleomycin intratracheal administration was established.
For this purpose, 8-week-old male Balb/c mice were subjected to general anesthesia using an inhalation anesthetic (2-3% isoflurane in oxygen), followed by disinfection of the neck region, skin incision, and exposure of the trachea.
Bleomycin (Sigma-Aldrich, USA) was directly administered into the trachea at a concentration of 5 mg/kg in a solution of 100 μL.
Two days prior to Bleomycin administration, the compound of the present invention or the comparative drug was administered intraperitoneally at the specified concentration and dose, and the administration was continued once daily for a total of 14 days.
The experimental groups included Normal, Bleomycin alone (BLM), and BLM plus the compound of the present invention (BLM+GO88, 0.2 mg/kg).
Ten days later, the mice were euthanized humanely using carbon dioxide gas, the trachea was incised, and PBS was injected into the trachea to remove blood from the lungs.
The lung tissue washed with PBS was excised, fixed in 4% paraformaldehyde solution for 24 hours, and then paraffin blocks and tissue sections were prepared. The prepared sections were subjected to pathological analysis using H & E, Masson's trichrome, and Sirius red staining.
Additionally, immunohistochemical (IHC) staining was performed for α-SMA (α-smooth muscle actin), an indicator of lung fibroblast activation.

CC1(C)CN(CCCCCCCCCCCCC(=O)Nc2nc(N)c3[nH]cnc3n2)CCO1 [Compound 11, 12-[4-(2,2-dimethylmorpholin-4-yl)]dodecyl-N-(6-aminopurine-2-yl)carboxamide]
efficacy in improving dermatological symptoms [1]: excellent efficacy in improving dermatological symptoms | Relative cell viability (%) ([2]; SU-DHL-8, 1 μM): 7.63% | Relative cell viability (%) ([2]; SU-DHL-8, 10 μM): 6.09% | Relative cell viability (%) ([2]; SU-DHL-8, 30 μM): 4.82% | Relative cell viability (%) ([2]; SU-DHL-8, 50 μM): 3.29% | PDK1 phosphorylation (phospho-PDK1 expression level) [3]: stronger PDK1 inhibition

Nc1ncccc1C(=O)NCCCCCCCCCCCCN1CCNCC1 [Compound 14, 2-Amino-N-(12-(piperazin-1-yl)dodecyl)nicotinamide]
efficacy in improving dermatological symptoms [1]: excellent efficacy in improving dermatological symptoms | PDK1 phosphorylation (phospho-PDK1 expression level) [3]: stronger PDK1 inhibition | collagen deposition (Masson's trichrome and Sirius red staining) [4]: significantly reduced | expression of α-SMA (IHC) [4]: significantly suppressed

From patent US20260184700A1, “PDK1 REGULATORY COMPOUND AND COMPOSITION CONTAINING THE SAME” (PROVIBIO CO., LTD., priority 2024, published 2026)
